Measurements as given in patent US11046743B2 (Antaros Medical AB, priority 2015, dated 2021).

Assay: Chemical stability in buffer, UPLC purity
Assay type: physicochemical

| Substance | Purity after 7 days (pH 4.6, 4° C.) [%] | Purity after 14 days (pH 4.6, 4° C.) [%] | Purity after 7 days (pH 4.6, 25° C.) [%] | Purity after 14 days (pH 4.6, 25° C.) [%] | Purity after 7 days (pH 4.6, 40° C.) [%] | Purity after 14 days (pH 4.6, 40° C.) [%] | Purity after 7 days (pH 7.4, 4° C.) [%] | Purity after 14 days (pH 7.4, 4° C.) [%] | Purity after 7 days (pH 7.4, 25° C.) [%] | Purity after 14 days (pH 7.4, 25° C.) [%] | Purity after 7 days (pH 7.4, 40° C.) [%] | Purity after 14 days (pH 7.4, 40° C.) [%] |
| --- | --- | --- | --- | --- | --- | --- | --- | --- | --- | --- | --- | --- |
| Tza-S-Q-G-T-F-T-S-D-I-S-K-Q-Nle-ESRRAQEFIEWLLATGPESGAPPPSC(VS-DO3A(Ga))-NH2 [SEQ ID NO 36] | 100 | 99 | 99 | 97 | 94 | 84 | 97 | 94 | 81 | 67 | 47 | 33 |
| Tza-S-Q-G-T-F-T-S-D-I-S-K-Q-Nle-ESRRAQEFIEWLLATGPESGAPPPSC(VS-DO3A)-NH2 [SEQ ID NO 35] | 100 | 99 | 97 | 97 | 92 | 91 | 98 | 96 | 90 | 84 | 64 | 53 |
| Tza-SQGTFTSDYSKQLESRRAQEFIEWLLAGGPESGAPPPSC(VS-DO3A(Ga))-NH2 [SEQ ID NO 8] | 100 | 99 | 99 | 97 | 94 | 84 | 97 | 94 | 81 | 67 | 47 | 33 |

More lines, now with the values ahead:

| Purity after 7 days (pH 4.6, 4° C.) [%] | Purity after 14 days (pH 4.6, 4° C.) [%] | Purity after 7 days (pH 4.6, 25° C.) [%] | Purity after 14 days (pH 4.6, 25° C.) [%] | Purity after 7 days (pH 4.6, 40° C.) [%] | Purity after 14 days (pH 4.6, 40° C.) [%] | Purity after 7 days (pH 7.4, 4° C.) [%] | Purity after 14 days (pH 7.4, 4° C.) [%] | Purity after 7 days (pH 7.4, 25° C.) [%] | Purity after 14 days (pH 7.4, 25° C.) [%] | Purity after 7 days (pH 7.4, 40° C.) [%] | Purity after 14 days (pH 7.4, 40° C.) [%] | Substance |
| --- | --- | --- | --- | --- | --- | --- | --- | --- | --- | --- | --- | --- |
| 100 | 99 | 99 | 97 | 94 | 84 | 97 | 94 | 81 | 67 | 47 | 33 | Tza-SQGTFTSDYSKQLDEQRAQEFIEWLLATGPESGAPPPSC(VS-DO3A(Ga))-NH2 [SEQ ID NO 50] |
| 100 | 99 | 97 | 97 | 92 | 91 | 98 | 96 | 90 | 84 | 64 | 53 | Tza-SQGTFTSDYSKQLDEQRAQEFIEWLLATGPESGAPPPSC(VS-DO3A)-NH2 [SEQ ID NO 49] |
| 100 | 99 | 97 | 97 | 92 | 91 | 98 | 96 | 90 | 84 | 64 | 53 | Tza-SQGTFTSDYSKQLESRRAQEFIEWLLAGGPESGAPPPSC(VS-DO3A)-NH2 [SEQ ID NO 6] |
